In patent US11603373B2, “TDO2 and IDO1 inhibitors” (Genentech, Inc., priority 2017, dated 2023):

Assays:
[1] = target: T1, TDO2 (SW48 cells, high TDO expressing cells) (Homo sapiens, UniProt P48775); experiment: NFK GreenScreen cell assay, inhibition of TDO in SW48 cells; format: cell-based; details: read-out: TDO2 Cell Fluor EC50
T1 construct: SW48 cells (high TDO expressing cells); endogenous in cells; host or cells: SW48 cells
Source text: (§1) Cells are counted on a Vi-Cell (Beckman Coulter). […] The final DMSO concentration is 0.5%.

[2] = target: T2, IDO1 (A172+IFNg cells, high IDO expressing cells) (Homo sapiens, UniProt P14902); experiment: NFK GreenScreen cell assay, inhibition of IDO in A172+IFNg cells; format: cell-based; details: read-out: IDO cell Fluor EC50
T2 construct: A172+IFNg cells (high IDO expressing cells); endogenous in cells; host or cells: A172 cells induced with 100 ng/ml IFNγ
T2 sequence (P14902 whole entry): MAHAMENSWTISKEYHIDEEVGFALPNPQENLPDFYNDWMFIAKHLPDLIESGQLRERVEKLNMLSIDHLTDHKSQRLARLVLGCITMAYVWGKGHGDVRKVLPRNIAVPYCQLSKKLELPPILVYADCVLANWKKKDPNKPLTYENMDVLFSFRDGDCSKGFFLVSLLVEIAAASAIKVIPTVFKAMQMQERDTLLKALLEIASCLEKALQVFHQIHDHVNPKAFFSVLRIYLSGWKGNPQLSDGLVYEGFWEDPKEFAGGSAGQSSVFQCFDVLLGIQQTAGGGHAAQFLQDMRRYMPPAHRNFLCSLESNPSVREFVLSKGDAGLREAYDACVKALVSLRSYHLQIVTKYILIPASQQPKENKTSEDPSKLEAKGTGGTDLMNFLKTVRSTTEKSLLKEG
Source text: as §1

T1 sequence (P48775 whole entry): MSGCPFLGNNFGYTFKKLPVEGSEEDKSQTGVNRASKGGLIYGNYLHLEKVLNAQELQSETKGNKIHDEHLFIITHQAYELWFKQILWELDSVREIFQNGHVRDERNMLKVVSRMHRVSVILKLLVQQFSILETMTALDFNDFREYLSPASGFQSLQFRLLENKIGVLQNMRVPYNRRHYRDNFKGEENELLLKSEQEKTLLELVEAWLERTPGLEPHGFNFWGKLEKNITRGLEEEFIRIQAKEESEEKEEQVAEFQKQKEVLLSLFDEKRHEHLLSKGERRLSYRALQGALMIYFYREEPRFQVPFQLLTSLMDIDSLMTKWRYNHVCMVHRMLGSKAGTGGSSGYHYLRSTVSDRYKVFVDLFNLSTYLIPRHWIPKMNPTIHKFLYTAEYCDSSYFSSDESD

| EC50 [1] | EC50 [2] | Compound |
| --- | --- | --- |
| 100 nM | 130 nM | COC(=O)N1CCC2(CC[C@H]([C@@H]3c4ccccc4-c4cncn43)[C@@H]2O)CC1 (single isomer, unassigned) [Example 9b] |
| 12000 nM | 6800 nM | NS(=O)(=O)N1CCC2(CC1)C[C@@H]([C@@H]1c3ccccc3-c3cncn31)[C@H]2O (single isomer, unassigned) [Example 11e] |
| 440 nM | 1400 nM | CC(C)(C)OC(=O)N1CC2CCC(C1)C21C[C@@H]([C@@H]2c3ccccc3-c3cncn32)[C@H]1O (stereo partly drawn) [Example 22d, tert-butyl (2′R,3′S)-2′-hydroxy-3′-((R)-5H-imidazo[5,1-a]isoindol-5-yl)-3-azaspiro[bicyclo[3.2.1]octane-8,1′-cyclobutane]-3-carboxylate] |
| 170 nM | 240 nM | CC(=O)N1CCC2(CC[C@H]([C@@H]3c4ccccc4-c4cncn43)[C@@H]2O)CC1 (single isomer, unassigned) [Example 10b] |
| 9800 nM | 4300 nM | CC(C)(C)OC(=O)N1[C@@H]2CC[C@H]1C[C@@]1(C[C@@H]([C@@H]3c4ccccc4-c4cncn43)[C@H]1O)C2 (single isomer, unassigned) [Example 12d] |
| 15000 nM | 2000 nM | CC(C)(C)OC(=O)N1[C@@H]2CC[C@H]1C[C@@]1(C[C@@H]([C@@H]3c4ccccc4-c4cncn43)[C@@H]1O)C2 (single isomer, unassigned) [Example 12m] |
| 16000 nM | 10000 nM | CC(C)(C)OC(=O)N[C@H]1CC[C@@]2(CC1)C[C@H]([C@H]1c3ccccc3-c3cncn31)[C@@H]2O (single isomer, unassigned) [Example 24e] |
| 3200 nM | 2500 nM | O=S(=O)(C1COC1)N1CCC2(CC1)C[C@H](C1c3ccccc3-c3cncn31)[C@@H]2O (stereo in doubt) [Example 23b, (2R,3S)-2-((5S)5H-imidazo[1,5-b]isoindol-5-yl)-7-(oxetan-3-ylsulfonyl)-7-azaspiro[3.5]nonan-3-ol] |
| 11000 nM | 1900 nM | CC(C)(C)OC(=O)N1[C@@H]2CC[C@H]1C[C@@]1(C[C@H]([C@H]3c4ccccc4-c4cncn43)[C@H]1O)C2 (single isomer, unassigned) [Example 12f] |
| 1400 nM | 92 nM | CC(C)(C)OC(=O)N1CC2CCC(C1)C21C[C@H]([C@H]2c3ccccc3-c3cncn32)[C@H]1O (stereo partly drawn) [Example 22f, tert-butyl (2′R,3′R)-2′-hydroxy-3′-((S)-5H-imidazo[5,1-a]isoindol-5-yl)-3-azaspiro[bicyclo[3.2.1]octane-8,1′-cyclobutane]-3-carboxylate] |
| 17000 nM | 8500 nM | CC(C)(C)OC(=O)N1CC2CCC(C1)C21C[C@@H]([C@@H]2c3ccccc3-c3cncn32)[C@@H]1O (stereo partly drawn) [Example 22e, tert-butyl (2′S,3′S)-2′-hydroxy-3′-((R)-5H-imidazo[5,1-a]isoindol-5-yl)-3-azaspiro[bicyclo[3.2.1]octane-8,1′-cyclobutane]-3-carboxylate] |
| 90 nM | 50 nM | O=S(=O)(C1COC1)N1CCC2(CC1)C[C@@H]([C@H]1c3ccccc3-c3cncn31)[C@H]2O [Example 23c, (2S,3R)-2-[(5S)-5H-imidazo[1,5-b]isoindol-5-yl]-7-(oxetan-3-ylsulfonyl)-7-azaspiro[3.5]nonan-3-ol] |

The next lines start with the compound.

| Compound | EC50 [1] | EC50 [2] |
| --- | --- | --- |
| COCCC(=O)N1CCC2(CC1)C[C@@H]([C@H]1c3ccccc3-c3cncn31)[C@H]2O [compound 47, 1-[3-hydroxy-2-(5H-imidazo[1,5-b]isoindol-5-yl)-7-azaspiro[3.5]nonan-7-yl]-3-methoxy-propan-1-one] | 850 nM | 850 nM |
| NS(=O)(=O)N1CC2(CC[C@H]([C@@H]3c4ccccc4-c4cncn43)[C@H]2O)C1 (single isomer, unassigned) [Example 18] | 110 nM | 580 nM |
| CN(C)C(=O)CCC(=O)N1CCC2(CC1)CC(C1c3ccccc3-c3cncn31)C2O (centres unmarked) [compound 50, 4-[3-hydroxy-2-(5H-imidazo[1,5-b]isoindol-5-yl)-7-azaspiro[3.5]nonan-7-yl]-N,N-dimethyl-4-oxo-butanamide] | 1300 nM | 1500 nM |
| CC(C)(C)OC(=O)N1CC2(CC[C@H]([C@H]3c4ccccc4-c4cncn43)[C@@H]2O)C1 (single isomer, unassigned) [Example 3h] | 1200 nM | 200 nM |
| CS(=O)(=O)N1CC2(CCC(C3c4ccccc4-c4cncn43)C2O)C1 (single isomer, unassigned) [compound 16, 6-(5H imidazo[5,1-a]isoindol-5-yl)-2-(methylsulfonyl)-2-azaspiro[3.4]octan-5-ol] | 95 nM | 220 nM |
| Cc1nc(S(=O)(=O)N2CCC3(CC2)C[C@@H]([C@H]2c4ccccc4-c4cncn42)[C@H]3O)cn1C [compound 30] | 490 nM | 320 nM |
| CC(C)(C)OC(=O)N1CC2(CC[C@H]([C@@H]3c4ccccc4-c4cncn43)[C@H]2O)C1 (single isomer, unassigned) [Example 3f] | 130 nM | 170 nM |
| Cn1cc(CCC(=O)N2CCC3(CC2)C[C@@H]([C@H]2c4ccccc4-c4cncn42)[C@H]3O)cn1 [compound 55, 1-[3-hydroxy-2-(5H-imidazo[1,5-b]isoindol-5-yl)-7-azaspiro[3.5]nonan-7-yl]-3-(1-methylpyrazol-4-yl)propan-1-one] | 810 nM | 510 nM |
| CC(C)S(=O)(=O)N1CCC2(CC1)C[C@@H]([C@H]1c3ccccc3-c3cncn31)[C@H]2O [compound 29, 2-(5H-imidazo[1,5-b]isoindol-5-yl)-7-isopropylsulfonyl-7-azaspiro[3.5]nonan-3-ol] | 240 nM | 59 nM |
| CN1CC(C(=O)N2CCC3(CC2)CC(C2c4ccccc4-c4cncn42)C3O)CC1=O (centres unmarked) [compound 53, 4-[3-hydroxy-2-(5H-imidazo[1,5-b]isoindol-5-yl)-7-azaspiro[3.5]nonane-7-carbonyl]-1-methyl-pyrrolidin-2-one] | 9900 nM | 6700 nM |
| CC(=O)N1CCC2(CC1)C[C@@H]([C@H]1c3ccccc3-c3cncn31)[C@H]2O [compound 56, 1-[3-hydroxy-2-(5H-imidazo[1,5-b]isoindol-5-yl)-7-azaspiro[3.5]nonan-7-yl]ethanone] | 790 nM | 660 nM |
| CS(=O)(=O)N1CCC2(CC[C@@H]([C@@H]3c4ccccc4-c4cncn43)[C@@H]2O)CC1 (single isomer, unassigned) [Example 7a] | 370 nM | 3900 nM |
| O=C(CCc1cccnc1)N1CCC2(CC1)CC(C1c3ccccc3-c3cncn31)C2O (centres unmarked) [compound 33, 1-[3-hydroxy-2-(5H-imidazo[1,5-b]isoindol-5-yl)-7-azaspiro[3.5]nonan-7-yl]-3-(3-pyridyl)propan-1-one] | 840 nM | 490 nM |
| NS(=O)(=O)N1CCC2(CC[C@H]([C@@H]3c4ccccc4-c4cncn43)[C@@H]2O)CC1 (single isomer, unassigned) [Example 4d] | 73 nM | 110 nM |
| CS(=O)(=O)N1CC2(CC(C3c4ccccc4-c4cncn43)C2O)C1 (centres unmarked) [compound 5, 6-(5H-imidazo[1,5-b]isoindol-5-yl)-2-methylsulfonyl-2-azaspiro[3.3]heptan-7-ol] | 230 nM | 460 nM |
| O=C(C1CC1)N1CCC2(CC1)CC(C1c3ccccc3-c3cncn31)C2O (centres unmarked) [compound 43, cyclopropyl-[3-hydroxy-2-(5H-imidazo[1,5-b]isoindol-5-yl)-7-azaspiro[3.5]nonan-7-yl]methanone] | 850 nM | 360 nM |
| O=C(C1CCOCC1)N1CCC2(CC1)C[C@@H]([C@H]1c3ccccc3-c3cncn31)[C@H]2O [compound 45, [3-hydroxy-2-(5H-imidazo[1,5-b]isoindol-5-yl)-7-azaspiro[3.5]nonan-7-yl]-tetrahydropyran-4-yl-methanone] | 2100 nM | 2400 nM |
| Cn1cc(S(=O)(=O)N2CCC3(CC2)CC(C2c4ccccc4-c4cncn42)C3O)cn1 (centres unmarked) [compound 26, 2-(5H-imidazo[1,5-b]isoindol-5-yl)-7-(1-methylpyrazol-4-yl)sulfonyl-7-azaspiro[3.5]nonan-3-ol] | 220 nM | 110 nM |
| CS(=O)(=O)N1CCC2(CC1)C[C@@H]([C@@H]1c3ccccc3-c3cncn31)[C@@H]2O (single isomer, unassigned) [Example 6h] | 8600 nM | 6500 nM |
| CC(C)(C)OC(=O)N1CC2(CC[C@@H]([C@H]3c4ccccc4-c4cncn43)[C@@H]2O)C1 (single isomer, unassigned) [Example 3e] | 14000 nM | 7100 nM |
| Cc1nn(C)c(C)c1S(=O)(=O)N1CCC2(CC1)CC(C1c3ccccc3-c3cncn31)C2O (centres unmarked) [compound 27, 2-(5H-imidazo[1,5-b]isoindol-5-yl)-7-(1,3,5-trimethylpyrazol-4-yl)sulfonyl-7-azaspiro[3.5]nonan-3-ol] | 140 nM | 30 nM |
| CC(C)(C)OC(=O)N1CC2(CC[C@@H]([C@@H]3c4ccccc4-c4cncn43)[C@H]2O)C1 (single isomer, unassigned) [Example 3g] | 14000 nM | 8200 nM |
| CC(C)(C)OC(=O)N1CC2(CC[C@H]([C@H]3c4ccccc4-c4cncn43)[C@H]2O)C1 (single isomer, unassigned) [Example 3d] | 130 nM | 4000 nM |
| Cc1ccncc1S(=O)(=O)N1CCC2(CC1)C[C@@H]([C@H]1c3ccccc3-c3cncn31)[C@H]2O [compound 32, (1R,2S)-2-((S)-5H-imidazo[5,1-a]isoindol-5-yl)-7-((4-methylpyridin-3-yl)sulfonyl)-7-azaspiro[3.5]nonan-1-ol] | 300 nM | 49 nM |
| CC(C)(C)OC(=O)N1CCC2(CC[C@@H]([C@H]3c4ccccc4-c4cncn43)[C@H]2O)CC1 (single isomer, unassigned) [Example 2c] | 107 nM | 51.5 nM |
